Where “and” joins values, the source holds several entries; their conditions need not be identical. Equal values may be shown once. Read-outs that look alike come from different tables or passages of the source.
What was measured:
[1] = tested on: Chloroquine-sensitive (3D7) strain of P. falciparum; assay: Malaria SYBR Green I-based fluorescence (MSF) assay, 3D7 strain; type: cell-based; conditions: Plasmodium falciparum
Description: (§1) The stock (5 mg/mL or 10 mM) solutions of extracts were prepared in DMSO and required dilutions were made in culture medium.
(§2) Two-fold serial dilutions of test samples were made in 96 well plates and incubated with 1.0% parasitized cell suspension containing 0.8% parasitaemia (Asynchronous culture with more than 80% ring stages). The plates were incubated at 37° C. in CO2 incubator in an atmosphere of 5% CO2 and air mixture. 72 hours later 100 μL of lysis buffer containing 2× concentration of SYBR Green-I (Invitrogen) was added to each well and incubated for one hour at 37° C. The plates were examined at 485±20 nm of excitation and 530±20 nm of emission for relative fluorescence units (RFUs) per well using the fluorescence plate reader (FLX800, BIOTEK). IC50 values were obtained by Logit regression analysis of dose response curves (Singh et al. 2011).

[2] = tested on: Chloroquine-resistant (K1) strain of P. falciparum; assay: Malaria SYBR Green I-based fluorescence (MSF) assay, K1 strain; type: cell-based; conditions: Plasmodium falciparum
Description: as §1, §2

[3] = in vitro; conditions: monkey
Description: (§3) The cells were incubated with test sample dilutions for 72 h and MTT was used as reagent for detection of cytotoxicity. Podophyllotoxin (SIGMA) was used as the standard reference drug.

[4] = tested on: chloroquine resistant P. yoelii (N-67); assay: In vivo evaluation in P. yoelii (N-67) Swiss mice model; conditions: one value per mouse
Description: The molecules were tested at 100 mg/kg dose through intraperitoneal route. The mice received infective inoculum containing 1×10^5 parasites on day 0 and then received four doses of test compound on day 0-3 once daily. Five infected mice were used for each molecule and five infected mice were kept as untreated control. Arteether (5 mg/kg, ×4, intramuscular) was used as positive control. Thin blood smear from tail blood of each mouse was prepared on day 4. The blood smears were fixed in methanol, stained with Giemsa's stain and examined under the light microscope (100×oil immersion). At least 10-15 fields per smear were scanned to obtain percent parasitaemia in treated as well as untreated mice. If significant suppression in percent parasitaemia is observed on day 4, the monitoring continues up to day 28.

[5] = tested on: Plasmodium falciparum D(6) clone; conditions: J Nat Prod. 2004, 67(1), 88-90; read-out: IC(50) against Plasmodium falciparum D(6) clone; cited from earlier work
[6] = tested on: P. falciparum W(2) clone; conditions: J Nat Prod. 2004, 67(1), 88-90; read-out: IC(50) against P. falciparum W(2) clone; cited from earlier work
[7] = tested on: multidrug resistant human nasopharyngeal carcinoma (KB); conditions: when used with vincristine; Bioorg. Med. Chem. Lett. 2012, 22 (24), 7726-7729; cited from earlier work
[8] = tested on: Vero cell line (C1008; Monkey kidney fibroblast); assay: in vitro; conditions: 72 h
Description: as §3

[9] = 3D7, range given for listed compounds, read-out: IC50 values against 3D7 culture
[10] = P. falciparum 3D7, 72 hours incubation, read-out: IC50 against 3D7
[11] = K1, range given for listed compounds, read-out: IC50 values against K1 culture
[12] = P. falciparum K1, 72 hours incubation, read-out: IC50 against K1
[13] = 100 mg/kg intraperitoneal, four doses day 0-3 once daily

SMILES | IC50 [1, 9] [µM] | IC50 [1, 10] [µM] | IC50 [2, 11] [µM] | IC50 [2, 12] [µM] | melting point [°C] | CC50 at 72 h [3] [µM] | % parasitaemia on day 4 in 5 individual mice [4, 13] | IC50 [5] [µM] | IC50 [6] [µM] | % parasitaemia on day 4 in 5 individual mice ([4]; positive control, 5 mg/kg ×4 intramuscular) [%] | chemoreversal activity, fold more active than verapamil [7] [fold] | CC50 [8] [µM]
COc1ccc([C@@H](CNC(=O)/C=C/c2cc(OC)c(OC)c(OC)c2)OC(=O)/C=C/c2cc(OC)c(OC)c(OC)c2)cc1OC [Compound 41, (S)-1-(3,4-dimethoxyphenyl)-2-((E)-3-(3,4,5-trimethoxyphenyl)acrylamido)ethyl (E)-3-(3,4,5-trimethoxyphenyl)acrylate] | 2 to 7 | 3.16 | 1.5 to 4 | 1.78 | 138 to 140 | 88 | 11.78% and 11.93% and 11.12% and 11.26% and 12.13% |  |  |  |  | 
CCO[C@H]1O[C@@H]2O[C@@]3(C)CC[C@H]4[C@H](C)CC[C@@H]([C@H]1C)[C@@]24OO3 [Arteether, reference compound] |  |  |  |  |  |  |  |  |  | 0.0 |  | 
COc1cc(C(=O)OCC(OC(=O)c2cc(OC)c(OC)c(OC)c2)c2cc(OC)c(OC)c(OC)c2)cc(OC)c1OC (stereo not shown) [bis-trimethoxybenzoyl derivative] |  |  |  |  |  |  |  |  |  |  | 340 | 
COc1cc(/C=C/C(=O)NC[C@@H](OC(=O)/C=C/c2cc(OC)c(OC)c(OC)c2)c2cc(OC)c(OC)c(OC)c2)cc(OC)c1OC [Compound 58, (S)-1-(3,4,5-trimethoxyphenyl)-2-((E)-3-(3,4,5-trimethoxyphenyl)acrylamido)ethyl (E)-3-(3,4,5-trimethoxyphenyl)acrylate] | 2 to 7 | 1.89 | 1.5 to 4 | 1.93 | 67 to 69 | 42.7 | 10.10% and 10.16% and 13.50% and 07.50% and 11.92% |  |  |  |  | 
CCCC(=O)NC[C@@H](OC(=O)/C=C/c1ccccc1)c1ccc(OC)c(OC)c1 [Compound 51, (S)-2-butyramido-1-(3,4-dimethoxyphenyl)ethyl cinnamate] |  | > 10 |  | > 10 | 93 to 94 |  |  |  |  |  |  | 42.4
O=C(/C=C/c1ccccc1)OC[C@@H](OC(=O)/C=C/c1ccccc1)c1ccc2ccccc2c1 [Compound 53, (S)-1-(naphthalen-2-yl)ethane-1,2-diyl (2E,2′E)-bis(3-phenylacrylate)] |  | > 10 |  | > 10 | 120 to 121 |  |  |  |  |  |  | > 200

Further compounds by falling IC50 [1, 10], results first:

IC50 [1, 9] [µM] | IC50 [1, 10] [µM] | IC50 [2, 11] [µM] | IC50 [2, 12] [µM] | melting point [°C] | SMILES | CC50 at 72 h [3] [µM] | % parasitaemia on day 4 in 5 individual mice [4, 13] | IC50 [5] [µM] | IC50 [6] [µM] | % parasitaemia on day 4 in 5 individual mice ([4]; positive control, 5 mg/kg ×4 intramuscular) [%] | chemoreversal activity, fold more active than verapamil [7] [fold] | CC50 [8] [µM]
2 to 7 | 3.9 | 1.5 to 4 | 2.56 | 132 to 135 | COc1ccc([C@@H](CNC(=O)/C=C/c2ccccc2)OC(=O)/C=C/c2ccccc2)cc1OC [Compound 1, (S)-2-cinnamamido-1-(3,4-dimethoxyphenyl)ethyl cinnamate] | 80.7 | 09.50% and 13.76% and 11.93% and 11.72% and 13.20% | 2.04 | 3.06 |  |  | 
2 to 7 | 2.34 | 1.5 to 4 | 2.62 |  | COc1ccc([C@@H](COC(=O)/C=C/c2cc(OC)c(OC)c(OC)c2)OC(=O)/C=C/c2cc(OC)c(OC)c(OC)c2)cc1OC [Compound 56, (S)-1-(3,4-dimethoxyphenyl)ethane-1,2-diyl(2E,2′E)-bis(3-(3,4,5-trimethoxyphenyl)acrylate)] | 55.7 | 06.06% and 08.31% and 16.23% and 13.92% and 11.13% |  |  |  |  | 
2 to 7 | 2.28 | 1.5 to 4 | 2.07 | 138 to 140 | COc1ccc([C@H](CNC(=O)/C=C/c2cc(OC)c(OC)c(OC)c2)OC(=O)/C=C/c2cc(OC)c(OC)c(OC)c2)cc1OC [Compound 42, (R)-1-(3,4-dimethoxyphenyl)-2-((E)-3-(3,4,5-trimethoxyphenyl)acrylamido)ethyl (E)-3-(3,4,5-trimethoxyphenyl)acrylate] | 88.9 | 14.07% and 12.50% and 15.10% and 12.16% and 11.46% |  |  |  |  | 

From patent US10519098B2, “Aromatic derivatives as anti-malarial” (Council of Scientific & Industrial Research, priority 2014, dated 2019)
